Measurements as given in patent US11760785B2, “Glucose transporter inhibitor-modified insulin for glucose-responsive insulin delivery” (NORTH CAROLINA STATE UNIVERSITY, priority 2017, dated 2023).
Each block holds one molecule with its values, some of them ahead of it.

Key:
[1] = system: type 1 diabetic mouse model induced by STZ; assay: in vivo therapeutic efficacy, blood glucose levels in type 1 diabetic mice; details: STZ type 1 diabetic mice; 300 IU/kg insulin conjugate, 150 IU/kg free insulin
Text: PBS was used as a control. The dose was set to 300 IU/kg for insulin conjugate and 150 IU/kg for free insulin to avoid severe hypoglycemia. Error bars represent the S.D. of three independent experiments (n=3).
(§1) PBS was used as a control.

[2] = system: glucose transporter (GLUT) on erythrocyte ghosts; assay: binding to erythrocyte ghosts as the model of glucose transporter
Text: In order to conjugate GLUT inhibitors to […], the GLUT inhibitors were first functionalized with an amino group to facilitate their conjugation to insulin (FIGS. 2 and 3). […] For inhibitor 2 (In2), an amino group was introduced through Michael addition reaction while maintaining the main structures unchanged. In order to conjugate insulin to forskolin and inhibitor 2, insulin was firstly reacted with Traut's reagent to introduce a thiol group and used directly for conjugating inhibitors, which was also beforehand reacted with SMCC crosslinker.

[3] = system: diabetic mice; details: mouse, in vivo, sc
Description: The in vivo therapeutic efficacy of insulin conjugates was evaluated in type 1 diabetic mouse model induced by STZ. The diabetic mice were assigned to four groups treated with insulin conjugates or native insulin. PBS was used as a control.

[4] = format: physicochemical
Text: Herein, a new strategy utilizing the in situ living cells as the carrier for insulin was developed. […] In addition, the introduction of water-insoluble inhibitors onto insulin can greatly reduce its water solubility at pH 7.4. After subcutaneously injected, insulin conjugate formed a depot beneath the skin, which can slowly release insulin conjugate into the blood. Then, insulin conjugate reaches the GLUT on living cells, including adipose cells, muscle cells and blood cells, during blood circulation and consequently establishing an insulin pool. Of note, the GLUT pool on living cells can also buffer the high level of insulin in blood in the initial period post-injection and works as the reservoir of insulin to smooth the level of blood insulin. The adsorption of insulin-conjugate to cell membranes is in a dynamic balance with insulin conjugate in interstitial fluid and blood under a normoglycemic state. The insulin conjugate binding on living cell membranes can be released in a glucose-triggered manner under a hyperglycemic state because of the competitive binding from elevated glucose level.
In order to conjugate GLUT inhibitors to […], the GLUT inhibitors were first functionalized with an amino group to facilitate their conjugation to insulin (FIGS. 2 and 3). For forskolin, the introduction of the amino group and alkyl chains can enhance its binding affinity to GLUT. […]

[5] = system: diabetic mice; assay: multiple intraperitoneal glucose tolerance test; format: in vivo, mouse; details: subcutaneous injection, 400 IU/kg insulin conjugate
Text: Insulin-F was subcutaneously injected. The dose was set to 400 IU/kg for insulin conjugate. Error bars represent the S.D. of three independent experiments (n=5).
as §1

Molecule: insulin [free insulin]
time blood glucose level maintained within the normal range (<200 mg/dL) [1]: three

binding to erythrocyte ghost membrane ([2]; erythrocyte ghosts as the model of glucose transporter): able to bind to membrane
Molecule: insulin-forskolin: insulin conjugated via Traut's reagent thiol and SMCC crosslinker to amino-functionalized forskolin, a GLUT inhibitor
long-lasting behavior by living imaging [3]: long-lasting behavior of insulin-F was further confirmed
solubility at pH 7.4 [4]: insoluble
blood-glucose-regulating ability in multiple glucose tolerance test [5]: long-lasting blood-glucose-regulating ability

Molecule: C=C1[C@@H](C)[C@H]2[C@H](Cc3ccccc3)NC(=O)[C@]23OC(=O)/C=C/[C@H](O)CCC[C@@H](C)C/C=C/[C@H]3[C@@H]1O [cytochalasin B, reference compound]
inhibition of insulin-F binding on erythrocyte ghosts ([2]; competitor against insulin-F binding, indicates the binding is GLUT specific): could be inhibited
